Data taken from ChEMBL document CHEMBL4507300 (2021).
pKi: −log10 of the molar value.

Experiments:
[1] = biological target: Sigma intracellular receptor 2 (Homo sapiens, UniProt Q5BJF2); assay: GPCRScan assay: inhibition of Sigma 2; set-up: radioligand conc. used [nm] 5.0, parental cells HEKT
[2] = biological target: Tyrosine-protein kinase ABL2 (Homo sapiens) (UniProt P42684); conditions: Compound concentration 1000.0 nM
[3] = biological target: Activin receptor type-1B (Homo sapiens) (UniProt P36896); conditions: Compound concentration 1000.0 nM
[4] = biological target: Activin receptor type-2B (Homo sapiens) (UniProt Q13705); conditions: Compound concentration 1000.0 nM
[5] = biological target: Calcium/calmodulin-dependent protein kinase type II subunit beta (Homo sapiens) (UniProt Q13554); conditions: Compound concentration 1000.0 nM
[6] = biological target: Macrophage colony-stimulating factor 1 receptor (Homo sapiens) (UniProt P07333); conditions: Compound concentration 1000.0 nM
[7] = biological target: Serine/threonine-protein kinase DCLK1 (Homo sapiens) (UniProt O15075); conditions: Compound concentration 1000.0 nM
[8] = biological target: Serine/threonine-protein kinase 17A (Homo sapiens) (UniProt Q9UEE5); conditions: Compound concentration 1000.0 nM
[9] = system: Epidermal growth factor receptor (Homo sapiens), P00533 [T790M]; conditions: Compound concentration 1000.0 nM
[10] = biological target: Mitogen-activated protein kinase 4 (Homo sapiens) (UniProt P31152); conditions: Compound concentration 1000.0 nM
[11] = biological target: Mitogen-activated protein kinase 7 (Homo sapiens) (UniProt Q13164); conditions: Compound concentration 1000.0 nM
[12] = system: Receptor-type tyrosine-protein kinase FLT3 (Homo sapiens), P36888 [N841I]; conditions: Compound concentration 1000.0 nM
[13] = biological target: Glycogen synthase kinase-3 beta (Homo sapiens) (UniProt P49841); conditions: Compound concentration 1000.0 nM
[14] = biological target: Interleukin-1 receptor-associated kinase 3 (Homo sapiens) (UniProt Q9Y616); conditions: Compound concentration 1000.0 nM
[15] = system: Mast/stem cell growth factor receptor Kit (Homo sapiens), P10721 [L576P]; conditions: Compound concentration 1000.0 nM
[16] = system: Mast/stem cell growth factor receptor Kit (Homo sapiens), P10721 [V559D]; conditions: Compound concentration 1000.0 nM
[17] = biological target: Serine/threonine-protein kinase LATS2 (Homo sapiens) (UniProt Q9NRM7); conditions: Compound concentration 1000.0 nM
[18] = system: Hepatocyte growth factor receptor (Homo sapiens), P08581 [Y1235D]; conditions: Compound concentration 1000.0 nM
[19] = biological target: Serine/threonine-protein kinase MRCK alpha (Homo sapiens) (UniProt Q5VT25); conditions: Compound concentration 1000.0 nM
[20] = biological target: Serine/threonine-protein kinase mTOR (Homo sapiens) (UniProt P42345); conditions: Compound concentration 1000.0 nM
[21] = biological target: Myosin light chain kinase family member 4 (Homo sapiens) (UniProt Q86YV6); conditions: Compound concentration 1000.0 nM
[22] = biological target: Serine/threonine-protein kinase 38 (Homo sapiens) (UniProt Q15208); conditions: Compound concentration 1000.0 nM
[23] = biological target: Serine/threonine-protein kinase Nek7 (Homo sapiens) (UniProt Q8TDX7); conditions: Compound concentration 1000.0 nM
[24] = biological target: Mitogen-activated protein kinase 14 (Homo sapiens) (UniProt Q16539); conditions: Compound concentration 1000.0 nM
[25] = biological target: Serine/threonine-protein kinase PAK 2 (Homo sapiens) (UniProt Q13177); conditions: Compound concentration 1000.0 nM
[26] = system: Phosphatidylinositol 4,5-bisphosphate 3-kinase catalytic subunit alpha isoform (Homo sapiens), P42336 [C420R]; conditions: Compound concentration 1000.0 nM
[27] = system: Phosphatidylinositol 4,5-bisphosphate 3-kinase catalytic subunit alpha isoform (Homo sapiens), P42336 [E542K]; conditions: Compound concentration 1000.0 nM
[28] = system: Phosphatidylinositol 4,5-bisphosphate 3-kinase catalytic subunit alpha isoform (Homo sapiens), P42336 [M1043I]; conditions: Compound concentration 1000.0 nM
[29] = biological target: Serine/threonine-protein kinase N1 (Homo sapiens) (UniProt Q16512); conditions: Compound concentration 1000.0 nM
[30] = biological target: Protein kinase C iota type (Homo sapiens) (UniProt P41743); conditions: Compound concentration 1000.0 nM
[31] = biological target: Interferon-induced, double-stranded RNA-activated protein kinase (Homo sapiens) (UniProt P19525); conditions: Compound concentration 1000.0 nM
[32] = biological target: Serine/threonine-protein kinase SIK3 (Homo sapiens) (UniProt Q9Y2K2); conditions: Compound concentration 1000.0 nM
[33] = biological target: Receptor-interacting serine/threonine-protein kinase 2 (Homo sapiens) (UniProt O43353); conditions: Compound concentration 1000.0 nM
[34] = biological target: Ribosomal protein S6 kinase alpha-4 (Homo sapiens) (UniProt O75676); conditions: Compound concentration 1000.0 nM
[35] = biological target: SNF-related serine/threonine-protein kinase (Homo sapiens) (UniProt Q9NRH2); conditions: Compound concentration 1000.0 nM
[36] = biological target: Serine/threonine-protein kinase 16 (Homo sapiens) (UniProt O75716); conditions: Compound concentration 1000.0 nM
[37] = biological target: Serine/threonine-protein kinase 33 (Homo sapiens) (UniProt Q9BYT3); conditions: Compound concentration 1000.0 nM
[38] = biological target: Tyrosine-protein kinase Tec (Homo sapiens) (UniProt P42680); conditions: Compound concentration 1000.0 nM
[39] = biological target: TRAF2 and NCK-interacting protein kinase (Homo sapiens) (UniProt Q9UKE5); conditions: Compound concentration 1000.0 nM
[40] = biological target: Non-receptor tyrosine-protein kinase TYK2 (Homo sapiens) (UniProt P29597); conditions: Compound concentration 1000.0 nM
[41] = biological target: Vascular endothelial growth factor receptor 2 (Homo sapiens) (UniProt P35968); conditions: Compound concentration 1000.0 nM
[42] = biological target: Serine/threonine-protein kinase 32B (Homo sapiens) (UniProt Q9NY57); conditions: Compound concentration 1000.0 nM
[43] = biological target: D(2) dopamine receptor (Homo sapiens) (UniProt P14416); conditions: Compound concentration 10.0 uM
[44] = biological target: Beta-2 adrenergic receptor (Homo sapiens) (UniProt P07550); conditions: Compound concentration 10.0 uM

Sigma intracellular receptor 2, sequence (Q5BJF2 whole entry): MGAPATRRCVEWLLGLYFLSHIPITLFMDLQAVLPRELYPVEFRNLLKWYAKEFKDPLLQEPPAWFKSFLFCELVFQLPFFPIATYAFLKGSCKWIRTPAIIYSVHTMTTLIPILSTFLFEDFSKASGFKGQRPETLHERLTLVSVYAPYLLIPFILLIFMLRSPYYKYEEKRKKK
Ribosomal protein S6 kinase alpha-4 (Homo sapiens), sequence (O75676 whole entry, looked up): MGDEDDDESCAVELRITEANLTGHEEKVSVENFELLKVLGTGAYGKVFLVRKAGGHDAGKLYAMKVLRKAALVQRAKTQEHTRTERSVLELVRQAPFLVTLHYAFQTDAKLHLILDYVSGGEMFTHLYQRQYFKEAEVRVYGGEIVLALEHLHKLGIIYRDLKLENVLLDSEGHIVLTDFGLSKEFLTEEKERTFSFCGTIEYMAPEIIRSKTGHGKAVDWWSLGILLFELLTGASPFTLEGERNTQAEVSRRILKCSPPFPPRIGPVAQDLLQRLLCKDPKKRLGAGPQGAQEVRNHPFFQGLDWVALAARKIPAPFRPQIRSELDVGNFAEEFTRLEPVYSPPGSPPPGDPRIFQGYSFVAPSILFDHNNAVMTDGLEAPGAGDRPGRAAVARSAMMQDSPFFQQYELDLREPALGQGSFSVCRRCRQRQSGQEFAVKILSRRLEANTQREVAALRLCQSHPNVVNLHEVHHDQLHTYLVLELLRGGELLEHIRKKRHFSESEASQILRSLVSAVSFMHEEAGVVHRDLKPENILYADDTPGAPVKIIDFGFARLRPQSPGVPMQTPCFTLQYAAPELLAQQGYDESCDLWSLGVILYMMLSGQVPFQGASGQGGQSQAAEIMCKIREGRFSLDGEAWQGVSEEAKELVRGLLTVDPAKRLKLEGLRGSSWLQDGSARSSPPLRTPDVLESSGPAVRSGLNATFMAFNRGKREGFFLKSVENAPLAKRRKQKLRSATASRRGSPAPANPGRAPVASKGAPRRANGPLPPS
Serine/threonine-protein kinase PAK 2 (Homo sapiens), sequence (Q13177 whole entry, canonical isoform): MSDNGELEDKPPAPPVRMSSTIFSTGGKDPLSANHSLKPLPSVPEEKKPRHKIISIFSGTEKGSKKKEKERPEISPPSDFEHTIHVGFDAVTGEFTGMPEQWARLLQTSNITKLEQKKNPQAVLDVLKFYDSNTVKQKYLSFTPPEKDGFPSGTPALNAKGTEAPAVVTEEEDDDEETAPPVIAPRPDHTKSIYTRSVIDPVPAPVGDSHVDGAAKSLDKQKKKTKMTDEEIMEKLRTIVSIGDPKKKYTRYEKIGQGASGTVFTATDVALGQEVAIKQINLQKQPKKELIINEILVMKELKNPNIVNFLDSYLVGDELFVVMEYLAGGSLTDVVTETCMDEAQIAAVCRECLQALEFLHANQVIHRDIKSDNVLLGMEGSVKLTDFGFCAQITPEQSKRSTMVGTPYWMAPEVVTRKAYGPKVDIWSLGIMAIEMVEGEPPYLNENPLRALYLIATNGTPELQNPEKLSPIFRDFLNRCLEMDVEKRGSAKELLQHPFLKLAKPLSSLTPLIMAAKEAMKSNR
Interleukin-1 receptor-associated kinase 3 (Homo sapiens), sequence (Q9Y616 whole entry): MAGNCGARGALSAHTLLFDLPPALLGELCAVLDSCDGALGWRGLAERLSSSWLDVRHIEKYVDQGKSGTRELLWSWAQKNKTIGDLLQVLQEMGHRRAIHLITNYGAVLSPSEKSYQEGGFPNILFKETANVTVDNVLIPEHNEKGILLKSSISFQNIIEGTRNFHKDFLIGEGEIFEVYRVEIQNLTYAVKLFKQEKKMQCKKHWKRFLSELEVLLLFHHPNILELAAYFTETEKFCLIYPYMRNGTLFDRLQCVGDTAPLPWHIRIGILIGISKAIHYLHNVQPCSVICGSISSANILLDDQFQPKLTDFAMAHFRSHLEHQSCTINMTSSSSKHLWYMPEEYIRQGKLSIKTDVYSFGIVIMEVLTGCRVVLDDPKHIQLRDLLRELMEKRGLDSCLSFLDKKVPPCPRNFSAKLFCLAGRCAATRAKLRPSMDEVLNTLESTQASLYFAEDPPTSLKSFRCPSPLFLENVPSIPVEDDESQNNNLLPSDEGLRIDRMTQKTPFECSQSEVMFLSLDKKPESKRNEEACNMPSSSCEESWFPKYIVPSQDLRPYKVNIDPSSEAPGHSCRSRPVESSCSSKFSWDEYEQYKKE
Activin receptor type-1B (Homo sapiens), sequence (P36896 whole entry): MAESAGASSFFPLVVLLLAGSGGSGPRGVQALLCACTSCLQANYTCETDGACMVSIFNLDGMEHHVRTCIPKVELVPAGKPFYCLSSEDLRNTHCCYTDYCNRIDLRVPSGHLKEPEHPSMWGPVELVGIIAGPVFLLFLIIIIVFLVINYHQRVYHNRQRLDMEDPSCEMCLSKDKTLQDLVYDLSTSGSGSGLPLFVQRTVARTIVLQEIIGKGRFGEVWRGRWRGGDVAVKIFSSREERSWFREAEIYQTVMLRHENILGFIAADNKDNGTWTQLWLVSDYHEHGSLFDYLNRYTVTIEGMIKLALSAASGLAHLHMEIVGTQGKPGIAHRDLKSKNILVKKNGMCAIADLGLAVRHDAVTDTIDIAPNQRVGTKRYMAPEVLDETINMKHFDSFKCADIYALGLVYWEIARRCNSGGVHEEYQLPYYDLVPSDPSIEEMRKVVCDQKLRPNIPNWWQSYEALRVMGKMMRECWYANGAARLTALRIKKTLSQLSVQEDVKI
Phosphatidylinositol 4,5-bisphosphate 3-kinase catalytic subunit alpha isoform (Homo sapiens), P42336 [C420R], sequence (P42336 whole entry C420R, canonical isoform): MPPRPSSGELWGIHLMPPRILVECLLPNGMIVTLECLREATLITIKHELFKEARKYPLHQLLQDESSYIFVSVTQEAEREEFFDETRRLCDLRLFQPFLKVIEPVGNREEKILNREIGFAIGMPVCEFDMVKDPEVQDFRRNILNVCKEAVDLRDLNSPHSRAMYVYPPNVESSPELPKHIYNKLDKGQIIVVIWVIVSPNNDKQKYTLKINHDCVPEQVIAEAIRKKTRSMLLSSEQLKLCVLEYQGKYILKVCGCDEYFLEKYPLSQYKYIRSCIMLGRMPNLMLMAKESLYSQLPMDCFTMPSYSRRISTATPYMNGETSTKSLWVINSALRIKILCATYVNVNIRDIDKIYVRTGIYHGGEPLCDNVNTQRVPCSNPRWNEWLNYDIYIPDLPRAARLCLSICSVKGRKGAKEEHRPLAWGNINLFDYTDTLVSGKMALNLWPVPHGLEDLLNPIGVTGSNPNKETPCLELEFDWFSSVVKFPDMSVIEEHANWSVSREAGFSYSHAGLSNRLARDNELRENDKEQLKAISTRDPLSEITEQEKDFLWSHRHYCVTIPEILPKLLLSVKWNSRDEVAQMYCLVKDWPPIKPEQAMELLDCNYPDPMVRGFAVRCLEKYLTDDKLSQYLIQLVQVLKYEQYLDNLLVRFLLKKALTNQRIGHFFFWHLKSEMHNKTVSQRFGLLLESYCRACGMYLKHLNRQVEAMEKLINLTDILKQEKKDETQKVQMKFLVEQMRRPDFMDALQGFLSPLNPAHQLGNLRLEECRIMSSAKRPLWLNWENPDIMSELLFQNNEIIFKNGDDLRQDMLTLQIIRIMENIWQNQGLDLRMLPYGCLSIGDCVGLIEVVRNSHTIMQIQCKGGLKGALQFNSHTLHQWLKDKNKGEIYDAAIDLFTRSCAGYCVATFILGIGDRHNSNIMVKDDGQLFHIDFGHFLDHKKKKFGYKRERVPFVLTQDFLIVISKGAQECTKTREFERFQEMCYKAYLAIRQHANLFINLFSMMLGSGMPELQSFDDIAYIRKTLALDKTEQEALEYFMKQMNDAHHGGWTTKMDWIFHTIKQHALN
Serine/threonine-protein kinase N1 (Homo sapiens), sequence (Q16512 2-942 limits assumed): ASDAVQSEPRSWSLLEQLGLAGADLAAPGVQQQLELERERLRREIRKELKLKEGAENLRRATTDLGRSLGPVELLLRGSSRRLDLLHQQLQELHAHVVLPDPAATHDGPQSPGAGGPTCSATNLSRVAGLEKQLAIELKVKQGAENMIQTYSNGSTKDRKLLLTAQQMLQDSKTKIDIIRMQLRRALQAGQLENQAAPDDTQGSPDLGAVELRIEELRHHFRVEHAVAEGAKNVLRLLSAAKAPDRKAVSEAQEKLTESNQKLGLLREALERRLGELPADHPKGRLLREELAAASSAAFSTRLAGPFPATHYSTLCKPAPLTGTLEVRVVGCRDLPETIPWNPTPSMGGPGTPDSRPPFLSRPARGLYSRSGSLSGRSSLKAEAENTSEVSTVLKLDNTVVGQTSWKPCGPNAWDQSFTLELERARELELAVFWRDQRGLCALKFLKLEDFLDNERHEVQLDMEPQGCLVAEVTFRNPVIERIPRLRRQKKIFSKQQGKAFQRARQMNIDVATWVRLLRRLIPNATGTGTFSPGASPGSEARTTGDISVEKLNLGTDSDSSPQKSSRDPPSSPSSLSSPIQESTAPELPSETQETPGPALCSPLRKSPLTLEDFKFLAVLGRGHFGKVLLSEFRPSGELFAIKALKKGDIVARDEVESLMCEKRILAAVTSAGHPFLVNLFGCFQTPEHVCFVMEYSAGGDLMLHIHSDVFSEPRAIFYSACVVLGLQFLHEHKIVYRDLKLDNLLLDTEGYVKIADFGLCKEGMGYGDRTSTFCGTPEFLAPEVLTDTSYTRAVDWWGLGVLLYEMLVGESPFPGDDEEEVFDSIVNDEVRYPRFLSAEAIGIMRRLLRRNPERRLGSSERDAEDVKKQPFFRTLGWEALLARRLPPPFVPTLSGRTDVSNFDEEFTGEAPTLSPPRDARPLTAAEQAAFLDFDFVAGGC
Serine/threonine-protein kinase 38 (Homo sapiens), sequence (Q15208 2-465 limits assumed): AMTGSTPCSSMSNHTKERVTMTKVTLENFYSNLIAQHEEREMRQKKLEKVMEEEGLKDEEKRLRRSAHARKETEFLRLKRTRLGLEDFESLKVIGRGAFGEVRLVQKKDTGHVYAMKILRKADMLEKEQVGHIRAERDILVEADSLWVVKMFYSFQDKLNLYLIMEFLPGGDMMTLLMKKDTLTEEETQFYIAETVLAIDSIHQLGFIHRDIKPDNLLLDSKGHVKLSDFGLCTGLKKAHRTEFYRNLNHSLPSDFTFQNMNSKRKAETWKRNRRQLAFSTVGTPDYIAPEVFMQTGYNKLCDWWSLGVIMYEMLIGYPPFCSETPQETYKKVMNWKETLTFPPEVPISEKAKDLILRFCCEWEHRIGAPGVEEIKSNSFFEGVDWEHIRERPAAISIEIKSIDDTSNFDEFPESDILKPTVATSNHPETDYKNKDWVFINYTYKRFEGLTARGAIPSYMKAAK

COc1cccc(CNC(=O)c2nc3scc(COCc4ccc(C(=O)O)cc4)c3c(=O)[nH]2)c1 [T-26c]
pKi ([1]; read-out: Ki): 5.34 | Ki ([1]; read-out: pKi (converted)): 3.98 µM | residual activity [2]: 82.2% | residual activity [3]: 89.4% | residual activity [4]: 100% | residual activity [5]: 96.8% | residual activity [6]: 100% | residual activity [7]: 60.4% | residual activity [8]: 73.1% | residual activity [9]: 92.1% | residual activity [10]: 80% | residual activity [11]: 99.3% | residual activity [12]: 100% | residual activity [13]: 62.6% | residual activity [14]: 97.5% | residual activity [15]: 100% | residual activity [16]: 99.1% | residual activity [17]: 86.2% | residual activity [18]: 100% | residual activity [19]: 100% | residual activity [20]: 100% | residual activity [21]: 100% | residual activity [22]: 72% | residual activity [23]: 100% | residual activity [24]: 96.7% | residual activity [25]: 100% | residual activity [26]: 100% | residual activity [27]: 76.1% | residual activity [28]: 100% | residual activity [29]: 100% | residual activity [30]: 100% | residual activity [31]: 97.7% | residual activity [32]: 63.5% | residual activity [33]: 100% | residual activity [34]: 100% | residual activity [35]: 89.2% | residual activity [36]: 87.2% | residual activity [37]: 100% | residual activity [38]: 86% | residual activity [39]: 100% | residual activity [40]: 95% | residual activity [41]: 70% | residual activity [42]: 93.4% | inhibition [43]: 7.09% | inhibition [44]: 25.4%
